Laboratory results: patent US12528773B2, “Non-lysosomal glucosylceramidase inhibitors and uses thereof” (ALECTOS THERAPEUTICS INC., priority 2020, dated 2026)

Columns and labels:
[1] = test system: rat intestinal alpha-glucosidases; assay: Inhibition of rat intestinal alpha-glucosidases (rat intestinal lysate, glucose detection); type: biochemical; conditions: compound concentration 25 μM, sucrose as substrate
Method: Assay for Determination of Inhibition of Rat Intestinal Alpha-Glucosidases
Various concentrations of test compounds were prepared in DMSO and then diluted into buffer consisting of 100 mM citric acid, 200 mM disodium phosphate, pH 6.0. Rat intestinal acetone powder (Sigma) was dissolved to 12.5 mg/mL in assay buffer and sonicated in an ice bath, centrifuged, and the supernatant was collected, aliquoted and stored at −20° C. until use. On the day of the assay, the rat intestinal lysate was diluted to 6.25 mg/mL (sucrose reactions) and 2.1 mg/ml (maltose reactions) in assay buffer. The final reaction solutions for sucrose contained 2.1 mg/mL rat intestinal lysate, 40 mM sucrose, 50 or 25 μM of test compound, and 3.3% DMSO. The final reaction solution for maltose contained 0.69 mg/mL rat intestinal lysate, 10 mM maltose, 50 or 25 μM of test compound, and 3.3% DMSO. The reaction was initiated by the addition of substrate (sucrose or maltose) and allowed to proceed at 37° C. for 20 min to assess rat intestinal alpha-glycosidase activities. The reaction was stopped by addition of 20 μL of 2 M Tris-HCl, pH 7.0. The glucose produced during the reaction was detected using a commercial Amplex Red glucose detection kit from Thermo Fisher. For a full plate, the Amplex Red detection mixture was prepared by mixing 35 μL glucose oxidase, 35 μL horseradish peroxidase and 35 μL Amplex Red into 3395 μL 1× Amplex Red detection buffer. A total of 30 μL of detection mixture was added to each well. Fluorescence was measured in kinetic mode on a Biotek Synergy H4 plate reader at a wavelength of 573 nm for excitation and 610 nm for emission for 15 min and quantified from the data at 10 min. Incubations without added rat intestinal lysate were used to correct for the background amount of glucose present in the samples. Incubations without added test compound were used to define maximal enzyme activity. Percent inhibition of rat intestinal alpha-glucosidases was determined by dividing the amount of glucose detected in the presence of test compound by the amount of glucose detected in the maximal enzyme activity wells. All conditions were analyzed in triplicate. […] The final reaction solutions were the same as described above for the Amplex Red Detection kit. After a 20 min reaction time at 37° C., 100 μL of hexokinase glucose reagent was added to all test wells except for the no enzyme added control wells and no test compound added wells. The plate was incubated for a further 15 min at room temperature and the absorbance was read at 340 nm on a Biotek Synergy H4 plate reader. The percent inhibition of rat intestinal alpha-glucosidases was determined in a similar manner as described above.

GBA2 = GBA2 (Homo sapiens (Human), UniProt Q9HCG7); assay: Inhibition of GBA2 in cell lysate (4-methylumbelliferone glucopyranoside substrate); type: biochemical; conditions: HEK293T-overexpressing GBA2 cellular homogenate, pH 5.5; read-out: GBA2 IC50;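 also: homogenate of stably transfected HEK293T cells pre-treated with a GCase inhibitor, test compound preincubated 5 min at 37 °C, substrate reaction 20 min at 37 °C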
GBA2, sequence (Q9HCG7 whole entry): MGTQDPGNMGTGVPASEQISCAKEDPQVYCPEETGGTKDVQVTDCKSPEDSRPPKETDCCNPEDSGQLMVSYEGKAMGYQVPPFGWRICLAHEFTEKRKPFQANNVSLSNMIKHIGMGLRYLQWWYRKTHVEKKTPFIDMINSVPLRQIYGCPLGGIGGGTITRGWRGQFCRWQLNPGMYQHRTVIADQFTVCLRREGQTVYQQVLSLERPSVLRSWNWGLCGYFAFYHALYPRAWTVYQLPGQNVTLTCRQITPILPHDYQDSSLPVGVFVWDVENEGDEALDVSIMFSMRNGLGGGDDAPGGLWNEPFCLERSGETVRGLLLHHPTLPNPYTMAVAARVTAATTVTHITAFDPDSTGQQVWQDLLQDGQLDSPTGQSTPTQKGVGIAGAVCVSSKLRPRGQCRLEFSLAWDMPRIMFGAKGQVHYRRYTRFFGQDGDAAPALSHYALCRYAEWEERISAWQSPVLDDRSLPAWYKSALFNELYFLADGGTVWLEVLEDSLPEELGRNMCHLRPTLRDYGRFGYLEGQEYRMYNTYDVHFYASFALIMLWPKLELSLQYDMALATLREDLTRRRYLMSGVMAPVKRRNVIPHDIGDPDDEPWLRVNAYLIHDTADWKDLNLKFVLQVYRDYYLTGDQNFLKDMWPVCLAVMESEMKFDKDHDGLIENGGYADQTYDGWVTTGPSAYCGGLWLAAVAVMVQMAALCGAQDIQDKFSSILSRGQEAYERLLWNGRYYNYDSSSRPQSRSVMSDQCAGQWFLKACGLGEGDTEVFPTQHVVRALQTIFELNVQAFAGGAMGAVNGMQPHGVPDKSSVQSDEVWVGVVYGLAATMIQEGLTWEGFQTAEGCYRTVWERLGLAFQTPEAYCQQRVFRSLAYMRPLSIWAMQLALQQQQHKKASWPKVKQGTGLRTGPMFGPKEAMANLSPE

SMILES | rat α-glu. (% inhib.) [1] [%] | IC50 (GBA2) [µM]
O[C@H]1[C@H](O)CN(C[C@H]2CCCN(c3cncc(C(F)(F)F)c3)C2)C[C@@H]1O [Example 168, (3S,4R,5R)-1-(((R)-1-(5-(trifluoromethyl)pyridin-3-yl)piperidin-3-yl)methyl)piperidine-3,4,5-triol] | 7 | < 0.1
O[C@H]1[C@H](O)CN(C[C@H]2CCCN(c3cc(C(F)(F)F)ccn3)C2)C[C@@H]1O [Example 169, (3S,4R,5R)-1-(((R)-1-(4-(trifluoromethyl)pyridin-2-yl)piperidin-3-yl)methyl)piperidine-3,4,5-triol] | 13 | < 0.1
O[C@H]1[C@H](O)CN(C[C@H]2CCCN(c3ccc(C(F)(F)F)cn3)C2)C[C@@H]1O [Example 170, (3S,4R,5R)-1-(((R)-1-(5-(trifluoromethyl)pyridin-2-yl)piperidin-3-yl)methyl)piperidine-3,4,5-triol] | 14 | < 0.1
O[C@H]1[C@H](O)CN(C[C@H]2CCCN(c3ccc(C(F)(F)F)nc3)C2)C[C@@H]1O [Example 171, (3S,4R,5R)-1-(((R)-1-(6-(trifluoromethyl)pyridin-3-yl)piperidin-3-yl)methyl)piperidine-3,4,5-triol] | 1 | < 0.1
O[C@H]1[C@H](O)CN(C[C@H]2CCCN(c3ccncc3C(F)(F)F)C2)C[C@@H]1O [Example 172, (3S,4R,5R)-1-(((R)-1-(3-(trifluoromethyl)pyridin-4-yl)piperidin-3-yl)methyl)piperidine-3,4,5-triol] | 15 | < 0.1
O[C@H]1[C@H](O)CN(C[C@H]2CCCN(c3ccnc(C(F)(F)F)c3)C2)C[C@@H]1O [Example 173, (3S,4R,5R)-1-(((R)-1-(2-(trifluoromethyl)pyridin-4-yl)piperidin-3-yl)methyl)piperidine-3,4,5-triol] | 3 | < 0.1
O[C@H]1[C@H](O)CN(C[C@@H]2CCCN(c3cccnc3C(F)(F)F)C2)C[C@@H]1O [Example 174, (3S,4S,5R)-1-(((S)-1-(2-(trifluoromethyl)pyridin-3-yl)piperidin-3-yl)methyl)piperidine-3,4,5-triol] | 3 | < 0.1
O[C@H]1[C@H](O)CN(C[C@@H]2CCCN(c3cncc(C(F)(F)F)c3)C2)C[C@@H]1O [Example 175, (3S,4S,5R)-1-(((S)-1-(5-(trifluoromethyl)pyridin-3-yl)piperidin-3-yl)methyl)piperidine-3,4,5-triol] | 3 | 0.1 to 1
O[C@H]1[C@H](O)CN(C[C@@H]2CCCN(c3cc(C(F)(F)F)ccn3)C2)C[C@@H]1O [Example 176, (3S,4S,5R)-1-(((S)-1-(4-(trifluoromethyl)pyridin-2-yl)piperidin-3-yl)methyl)piperidine-3,4,5-triol] | 0 | 0.1 to 1
O[C@H]1[C@H](O)CN(C[C@@H]2CCCN(c3ccc(C(F)(F)F)cn3)C2)C[C@@H]1O [Example 177, (3S,4S,5R)-1-(((S)-1-(5-(trifluoromethyl)pyridin-2-yl)piperidin-3-yl)methyl)piperidine-3,4,5-triol] | 7 | 1 to 25
O[C@H]1[C@H](O)CN(C[C@@H]2CCCN(c3ccc(C(F)(F)F)nc3)C2)C[C@@H]1O [Example 178, (3S,4S,5R)-1-(((S)-1-(6-(trifluoromethyl)pyridin-3-yl)piperidin-3-yl)methyl)piperidine-3,4,5-triol] | 6 | 0.1 to 1
O[C@H]1[C@H](O)CN(C[C@@H]2CCCN(c3ccncc3C(F)(F)F)C2)C[C@@H]1O [Example 179, (3S,4S,5R)-1-(((S)-1-(3-(trifluoromethyl)pyridin-4-yl)piperidin-3-yl)methyl)piperidine-3,4,5-triol] | 6 | 0.1 to 1
